{"source": "patent US20070148723A1", "about": "“METHOD AND APPARATUS FOR DETECTING PRESENCE OF TOXIC MATERIAL WITHIN SAMPLE” (SAMSUNG ELECTRONICS CO., LTD., priority 2005, published 2007)", "key": {"[1]": {"test_system": "electron transfer system of sub-mitochondrial particles", "assay_type": "biochemical", "conditions": "for cathode peak current at 1.019 V relative to a sample of 0 wt %: 2.5 wt %, FIG. 4 / FIG. 5", "text": "FIGS. 1A is a diagram of an exemplary embodiment of a current measuring device; and FIG. 1B is a schematic diagram of an exemplary embodiment of a current measuring apparatus. Referring to FIG. 1A, a reaction vessel 10 includes an Ag/AgCl standard electrode 20 (RE in FIG. 1B), a platinum working electrode 30 (WE in FIG. 1B), and a platinum counter electrode 40 (CE in FIG. 1B). The standard electrode 20, the working electrode 30, and the counter electrode 40 are connected to a voltmeter 50 (e.g., a Perkin-Elmer VMP multichannel potentiostat; V in FIG. 1B). An X/Y plotter 60 is connected to the voltmeter 50. 0.5× PBS including 0.5 mg/ml of SMP (submitochondrial particle) (Havard Bioscience), 6 mM of NADH, and 50 mM of KCl was allowed to react at ambient temperature for 1 hour. […] The cyclic voltammogram was measured with a scan speed of 50 mV/sec CV at a sweep range of 0.85 to 1.35 V. […] FIG. 3 is a graph showing the cyclic voltammogram of 2.5 mM Ru(bpy)3^2+ in phosphate-buffered saline (PBS). Then, ethanol samples having final concentrations (on a weight basis) of 0 wt %, 2.5 wt %, 5 wt %, and 10 wt %, or a sample having 2.5 wt % of sorbitol was added to 0.5× PBS including 0.5 mg/ml of SMP, (submitochondrial particle), 6 mM of NADH, and 50 mM of KCl to prepare 7 ml of a final reaction solution and was allowed to react for 1 hour at ambient temperature. Next, absorbance of the final reaction solution was measured at 340 nanometers (nm) using a spectrophotometer and the concentration of NADH was measured using an optical method. […] The cyclic voltammogram was measured with a scan speed of 50 mV/sec CV at a sweep range of 0.85 to 1.35V."}, "[2]": {"test_system": "electron transfer system of sub-mitochondrial particles", "test": "Optical method: NADH concentration by absorbance at 340 nm of SMP/NADH reaction solution", "assay_type": "biochemical", "conditions": "2.5 wt %", "procedure": "Then, ethanol samples having final concentrations (on a weight basis) of 0 wt %, 2.5 wt %, 5 wt %, and 10 wt %, or a sample having 2.5 wt % of sorbitol was added to 0.5× PBS including 0.5 mg/ml of SMP, (submitochondrial particle), 6 mM of NADH, and 50 mM of KCl to prepare 7 ml of a final reaction solution and was allowed to react for 1 hour at ambient temperature. Next, absorbance of the final reaction solution was measured at 340 nanometers (nm) using a spectrophotometer and the concentration of NADH was measured using an optical method. […] The cyclic voltammogram was measured with a scan speed of 50 mV/sec CV at a sweep range of 0.85 to 1.35V."}, "[3]": {"conditions": "0.5 mg/ml SMP, 6 mM NADH, 1 hour at ambient temperature"}}, "data": [{"smiles": "CCO", "note": "[ethanol]", "values": [{"measurement": "effect on electron transfer reaction of sub-mitochondrial particles (toxicity)", "setting": "[1]", "result": "obstructs the electron transfer reaction of sub-mitochondrial particles"}, {"measurement": "cathode peak current at 1.019 V in a cyclic voltammogram as concentration increases", "setting": "[1]; 0, 2.5, 5 and 10 wt %, 0.5 mg/ml SMP, 6 mM NADH, 1 hour at ambient temperature, FIG. 4", "result": "moves towards in less negative (i.e., more positive, cathodic) direction"}, {"measurement": "cathode peak current at 1.019 V relative to a sample of 0 wt %", "setting": "[1]; [3]", "result": "moves toward a less negative value"}]}, {"smiles": "OC[C@@H](O)[C@@H](O)[C@H](O)[C@@H](O)CO", "note": "[sorbitol]", "values": [{"measurement": "effect on electron transfer reaction of sub-mitochondrial particles (toxicity)", "setting": "[1]", "result": "does not include toxic material"}, {"measurement": "cathode peak current at 1.019 V relative to a sample of 0 wt %", "setting": "[1]; [3]", "result": "moves towards a more negative value"}, {"measurement": "toxicity by optical measurement", "setting": "[2]; conclusion from absorbance at 340 nm", "result": "no toxicity"}, {"measurement": "absorbance at 340 nm compared to a sample of 0 wt %", "setting": "[2]; spectrophotometer, data not illustrated", "result": "no changes"}]}]}
